Legend:
[1] = system: 100 protein kinases; test: kinase competition-binding assay; settings: 30 μM
[2] = system: panel of 60 unrelated proteins, including histone deacetylases; test: off-target panel
[3] = target: Flag-tagged UTX from transiently transfected HEK-293 cells (Homo sapiens, UniProt O15550); test: chemoproteomics affinity capture with immobilized GSK-J3, western blotting; format: binding; settings: 100 μM free compound, HEK-293 lysate
[4] = intracellular compound quantification in macrophage lysates; format: in vitro ADME, human
[5] = system: panel of demethylases of the JMJ family; test: JMJ selectivity panel; settings: other than JMJD3 and UTX
[6] = system: Flag-JMJD3-transfected HeLa cells; test: nuclear H3K27me3 immunostaining; format: cell-based
[7] = cytokine expression by PCR array in LPS-activated macrophages; format: cell-based, human; settings: 30 μM, LPS 2 h, n = 4 donors
[8] = TNF-α production by LPS-activated macrophages; format: cell-based, human
[9] = ChIP analysis at the TNFA locus in LPS-stimulated macrophages; format: cell-based, human
[10] = system: macrophages derived from patients with rheumatoid arthritis; test: TNF-α production by macrophages derived from patients with rheumatoid arthritis; format: cell-based, human

Flag-tagged UTX from transiently transfected HEK-293 cells, sequence (O15550 whole entry): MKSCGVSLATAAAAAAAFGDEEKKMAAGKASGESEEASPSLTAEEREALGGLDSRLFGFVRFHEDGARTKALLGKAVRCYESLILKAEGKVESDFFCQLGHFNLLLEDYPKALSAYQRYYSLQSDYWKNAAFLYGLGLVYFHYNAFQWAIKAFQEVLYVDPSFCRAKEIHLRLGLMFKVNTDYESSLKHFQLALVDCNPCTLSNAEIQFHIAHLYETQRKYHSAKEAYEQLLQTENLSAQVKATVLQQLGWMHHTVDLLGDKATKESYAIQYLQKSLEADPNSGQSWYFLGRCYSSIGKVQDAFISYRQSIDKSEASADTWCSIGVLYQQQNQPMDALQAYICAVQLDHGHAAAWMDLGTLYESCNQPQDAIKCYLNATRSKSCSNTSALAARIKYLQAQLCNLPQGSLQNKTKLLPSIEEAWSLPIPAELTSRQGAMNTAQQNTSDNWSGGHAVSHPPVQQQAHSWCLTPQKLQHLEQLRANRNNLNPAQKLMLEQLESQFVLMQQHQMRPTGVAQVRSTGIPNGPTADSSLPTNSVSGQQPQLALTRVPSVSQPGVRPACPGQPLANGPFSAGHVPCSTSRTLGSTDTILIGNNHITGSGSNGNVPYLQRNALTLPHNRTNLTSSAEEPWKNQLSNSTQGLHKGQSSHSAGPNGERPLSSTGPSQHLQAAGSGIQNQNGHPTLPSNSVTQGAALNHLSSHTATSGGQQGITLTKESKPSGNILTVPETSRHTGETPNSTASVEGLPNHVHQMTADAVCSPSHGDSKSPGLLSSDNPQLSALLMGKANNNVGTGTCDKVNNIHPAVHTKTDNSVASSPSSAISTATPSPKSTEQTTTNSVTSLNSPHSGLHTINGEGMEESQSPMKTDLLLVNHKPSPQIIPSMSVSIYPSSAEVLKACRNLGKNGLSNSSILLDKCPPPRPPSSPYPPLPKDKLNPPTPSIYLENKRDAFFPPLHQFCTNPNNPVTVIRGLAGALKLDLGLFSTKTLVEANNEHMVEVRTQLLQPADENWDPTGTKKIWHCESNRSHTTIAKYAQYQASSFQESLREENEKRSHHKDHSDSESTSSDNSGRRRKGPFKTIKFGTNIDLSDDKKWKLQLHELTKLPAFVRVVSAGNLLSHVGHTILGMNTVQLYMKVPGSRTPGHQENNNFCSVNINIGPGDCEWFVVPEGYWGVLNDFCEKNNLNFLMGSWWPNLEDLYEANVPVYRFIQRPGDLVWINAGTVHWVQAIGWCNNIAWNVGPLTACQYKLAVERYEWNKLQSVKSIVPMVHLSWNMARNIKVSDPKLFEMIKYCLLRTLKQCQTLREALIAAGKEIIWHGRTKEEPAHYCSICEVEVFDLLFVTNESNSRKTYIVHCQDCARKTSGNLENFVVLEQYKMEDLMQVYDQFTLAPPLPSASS

Compound | inhibition of 100 protein kinases [1] | off-target activity against a panel of 60 unrelated proteins [2] | competition of capture of Flag-tagged UTX by immobilized GSK-J3 [3] | cellular permeability [4] | activity against a panel of demethylases of the JMJ family [5] | hydrolysis by macrophage esterases [4] | nuclear H3K27me3 staining in Flag-JMJD3-transfected HeLa cells ([6]; 25 μM) | total nuclear H3K27me3 levels in untransfected cells ([6]; untransfected cells) | LPS-driven cytokines with significantly reduced expression (PCR array) [7] | levels of LPS-induced JMJD3 or of LPS-independent UTX and EZH2 [8] | TNF-α production after siRNA knockdown of either JMJD3 or UTX alone ([8]; 30 μM, LPS 1 h) | cellular toxicity ([8]; conditions of the TNF-α assay) | IC50 ([8]; read-out: IC50 for TNF-α blockade, LPS, 6 h, n = 5 donors) | H3K27 methylation upstream of the TNFA TSS [9] | LPS-induced loss of H3K27me3 associated with the TNFA TSS (ChIP) ([9]; 30 μM, LPS 1 h, n = 8 donors) | recruitment of RNA polymerase II to the TNFA TSS (ChIP) ([9]; 30 μM, LPS 1 h, n = 8 donors) | production of TNF-α by macrophages from patients with rheumatoid arthritis [10] | effect on TNF-α protein production ([8]; LPS, 6 h)
O=C(O)CCNc1cc(N2CCc3ccccc3CC2)nc(-c2ccccn2)n1 [GSK-J1] | did not significantly inhibit | negligible off-target activity | competitively inhibited | restricts cellular permeability | inactive |  |  |  |  |  |  |  |  |  |  |  |  | 
CCOC(=O)CCNc1cc(N2CCc3ccccc3CC2)nc(-c2ccccn2)n1 [GSK-J4] |  |  |  |  |  | rapidly hydrolysed | preserved nuclear H3K27me3 staining | increased total nuclear H3K27me3 levels | 16 of 34 | neither GSK-J4 nor GSK-J5 directly affected | still able to inhibit TNF-α production | No interference from cellular toxicity was observed | 9 µM | Neither GSK-J4 nor GSK-J5 had an effect | prevented the LPS-induced loss of H3K27me3 | blocked the recruitment of RNA polymerase II | blocked the production of TNF-α | 
CCOC(=O)CCNc1cc(N2CCc3ccccc3CC2)nc(-c2cccnc2)n1 [GSK-J5] |  |  |  |  |  | rapidly hydrolysed |  |  |  | neither GSK-J4 nor GSK-J5 directly affected |  |  |  | Neither GSK-J4 nor GSK-J5 had an effect |  |  |  | no effect

Reference: PMC4691848 (Nature, 2012)
